Patent US9487462B2, “Inhibitors of matrix metalloproteinases” (PharmaHungary 2000 Kft., priority 2010, dated 2016)
Where a name gives a salt, the structure may show the parent alone. Read-outs that look alike come from different tables or passages of the source.

How the values were obtained:
[1] = Cytotoxicity, alamarBlue viability, HCT116; format: cell-based; settings: human, HCT116 colon tumor cells, 48 hours incubation, read-out: HCT116 LC50
Method: (§1) Beside the inhibitory effect on MMPs we tested the cytotoxicity of the selected compounds. These measurements were done in parallel on two cell lines. One of them was the healthy human fibroblast cell line MRC-5 while the other was the human colon tumor cell line HCT116. The viability of the cells was monitored using alamarBlue. This dye is reduced by the cells resulting in an increased fluorescent signal which is proportional to the number of living cells. Cells were incubated with the dilutions of the tested compounds for 48 hours then alamarBlue was added to them for 4 hours. After that the fluorescence changes were detected using excitation at 540 nm and emission wavelength of 590 nm by a Wallac 1420 Microplate Reader. IC50 values were determined for the compounds using six concentrations and duplicate points for each concentration.

MMP2 = MMP2 (Homo sapiens, UniProt P08253); assay: MMP activity assay (fluorogenic substrate), MMP2 catalytic domain; format: biochemical; settings: Table 2; read-out: MMP2 IC50
Method: (§2) MMP activity assays were conducted as follows: MMP2, MMP9, MMP13 catalytic domain was expressed in E. coli in form of inclusion bodies followed by refolding and purification.
(§3) The Protocol of the Activity Assay:
(§4) Stock solution of substrate (Mca-Lys-Pro-Leu-Gly-Leu-Dpa-Ala-Arg-NH2) was prepared in DMSO at a concentration of 6 mM. Assays were performed in an assay buffer (50 mM Tris pH 7.5, 300 mM NaCl, 10 μM ZnSO4, 5 mM CaCl2, 0.005% Brij-35). The final DMSO concentration in all assays was 1.0%. […] The assays were carried out at 37° C. The fluorescence changes, resulting from the substrate cleavage, were detected using excitation at 340 nm and emission wavelength of 405 nm using a Wallac 1420 Microplate Reader. The reaction mixtures were preincubated with the inhibitors for 30 minutes. The reactions were started by the addition of MMP substrate, and the fluorescence intensity changes were measured after 60 minutes. The obtained fluorescence values were normalized and % inhibition values calculated. Dose response curves were determined from 6 concentration points using three fold dilution steps, each concentration point was determined in duplicate. IC50 values were calculated from the dose response curves.

MMP9 = MMP9 (Homo sapiens, UniProt P14780); assay: MMP activity assay (fluorogenic substrate), MMP9 catalytic domain; format: biochemical; settings: Table 2
Method: as §2, §3, §4

[2] = system: neonatal rat cardiac myocytes; assay: Cytoprotective effect in cardiac myocytes subjected to hypoxia and reoxygenation; format: cell-based
Method: Neonatal rat hearts were digested and isolated cardiomyocytes were plated onto 24-well plastic plates at […]. The cells were maintained at 37° C. in a humidified atmosphere of 5% CO2 and 95% air in a CO2 incubator until confluence was reached. Cultures at day 3 were used for treatments. Cells were kept under normoxic or simulated ischemic conditions, i.e. the growth medium was changed to a normoxic or hypoxic solution and the cells were incubated under 95% air and 5% CO2 or 95% N2 and 5% CO2 at 37° C. for 4 h, respectively as described in detail (Gorbe A, Giricz Z, Szunyog A, Csont T, Burley D S, Baxter G F, Ferdinandy P. Role of cGMP-PKG signaling in the protection of neonatal rat cardiac myocytes subjected to simulated ischemia/reoxygenation. Basic Res Cardiol. 105:643-650, 2010). The positive control ilomastate (0.5 microM) and MMP-inhibitors at different effective concentrations (EC 5, EC 10, EC 20, and EC50 as determined in previous test examples) were applied during normoxia or simulated ischemia and also during reoxygenation. The vehicle was DMSO. Cell viability was determined after Calcein A M fluorescent staining as described (Karliner J S, Honbo N, Summers K, Gray M O, Goetzl E J. The lysophospholipids sphingosine-1-phosphate and lysophosphatidic acid enhance survival during hypoxia in neonatal rat cardiac myocytes. J Mol Cell Cardiol, 33:1713-7, 2001). Total cell count was determined after digitonin treatment to permeabilize the cells by using propidium iodine fluorescent staining (Roy S S, Hajnoczky G. Calcium, mitochondria and apoptosis studied by fluorescence measurements. Methods. 46:213-223, 2008).

MMP13 [3] = target: T1, MMP13 (Homo sapiens (Human), UniProt P45452); assay: In vitro zymography assay (gelatin), MMP-13; format: biochemical; settings: % ± SD; for % inhibition MMP-13 (50 kDa): 1 μM; for inhibition at 100 µM: read-out: % inhibition MMP-13 (50 kDa)
Method: (§5) MMP-2 and MMP-9 enzymes were isolated from rat hearts and from rat spleen while human, recombinant MMP-1 and MMP-13 enzymes used were commercial. MMP-2, -9, -13 enzymes were separated by electrophoresis during non-reducing conditions on 8% SDS-polyacrylamide gels copolymerized with 2 mg/ml gelatin from porcine skin (Sigma Aldrich) while MMP-1 was separated under the same conditions on 8% SDS-polyacrylamide gels copolymerized with 2 mg/ml casein (Sigma Aldrich). […] In case of MMP-13 p-aminophenylmercuric acetate (APMA) was used for enzyme activation at 37° C. for 30 min. After electrophoresis, gels were washed in 2.5% Triton-X 100 with agitation and then incubated for 20 hrs at 37° C. in enzyme incubation buffer (50 mM Tris-HCl, pH 7.5, containing 5 mM CaCl2, 200 mM NaCl) with or without MMP inhibitor. Zymographic gels were stained in Coomassie Brilliant Blue R-250 and de-stained. Gelatin and casein zymograms were scanned. MMP activity is detected as a white zone on a blue background and the clear bands in the gel can be quantified by densitometry. The obtained density values were measured and % inhibition values calculated (Kupai et al., 2010). The table below summarizes the prescreen inhibition values determined for different MMP inhibitors on MMP1, -2, -9, -13.

MMP1 [4] = target: T2, MMP1 (Homo sapiens (Human), UniProt P03956); assay: MMP activity assay (fluorogenic substrate), MMP1; format: biochemical; settings: Table 2; read-out: MM1 IC50
Target sequence in this assay (P03956 100-469, species assumed): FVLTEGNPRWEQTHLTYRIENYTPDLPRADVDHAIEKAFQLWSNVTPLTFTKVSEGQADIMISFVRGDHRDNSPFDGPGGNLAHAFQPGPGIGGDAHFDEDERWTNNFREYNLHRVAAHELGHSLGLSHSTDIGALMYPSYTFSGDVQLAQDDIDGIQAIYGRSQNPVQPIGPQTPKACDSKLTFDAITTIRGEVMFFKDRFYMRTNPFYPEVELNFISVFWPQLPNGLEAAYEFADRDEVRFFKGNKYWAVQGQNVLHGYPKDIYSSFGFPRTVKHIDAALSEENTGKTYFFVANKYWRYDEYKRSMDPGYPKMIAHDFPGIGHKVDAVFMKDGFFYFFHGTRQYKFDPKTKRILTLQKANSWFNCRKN

[5] = Cytotoxicity, alamarBlue viability, MRC-5; format: cell-based; settings: human, MRC-5 fibroblast cells, 48 hours incubation, read-out: MRC-5 LC50
Method: as §1

MMP13 [6] = target: T1, MMP13; assay: MMP activity assay (fluorogenic substrate), MMP13 catalytic domain; format: biochemical; settings: Table 2; read-out: MMP13 IC50
Method: as §2, §3
as §4, with “The fluorescence changes, resulting from the substrate cleavage, were detected using excitation at 340 nm and emission wavelength of 405 nm using a Wallac 1420 Microplate Reader.” left out

MMP-2 = MMP-2 (Rattus norvegicus (Rat), UniProt P33436); assay: In vitro zymography assay (gelatin), MMP-2; format: biochemical
Chain of MMP-2 (P33436 110-662): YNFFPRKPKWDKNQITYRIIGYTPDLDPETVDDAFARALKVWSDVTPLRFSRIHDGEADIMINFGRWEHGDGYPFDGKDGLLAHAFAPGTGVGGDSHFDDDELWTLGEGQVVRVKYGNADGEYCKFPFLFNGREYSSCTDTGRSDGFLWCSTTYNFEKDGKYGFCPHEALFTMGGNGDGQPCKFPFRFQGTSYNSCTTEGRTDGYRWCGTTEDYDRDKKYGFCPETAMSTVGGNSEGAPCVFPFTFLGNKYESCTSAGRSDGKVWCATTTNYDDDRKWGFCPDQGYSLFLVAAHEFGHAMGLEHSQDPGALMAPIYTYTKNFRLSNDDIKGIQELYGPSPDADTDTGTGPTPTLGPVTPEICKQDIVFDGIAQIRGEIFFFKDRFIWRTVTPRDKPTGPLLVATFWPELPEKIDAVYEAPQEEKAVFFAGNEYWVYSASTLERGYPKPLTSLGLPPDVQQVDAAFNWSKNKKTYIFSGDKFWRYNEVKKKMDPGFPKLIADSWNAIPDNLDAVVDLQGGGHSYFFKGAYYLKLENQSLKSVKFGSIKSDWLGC
Method: as §5

[7] = system: human colon tumor cell line HCT116; assay: Cytotoxicity, alamarBlue viability, HCT116; format: cell-based; settings: 48 hours incubation, read-out: HCT116 LC50
Method: as §1

[8] = system: healthy human fibroblast cell line MRC-5; assay: Cytotoxicity, alamarBlue viability, MRC-5; format: cell-based; settings: 48 hours incubation, read-out: MRC-5 LC50
Method: as §1

MMP1 [9] = target: T2, MMP1; assay: In vitro zymography assay (casein), MMP-1; format: biochemical; settings: % ± SD
Method: as §5
Target sequence in this assay (P03956 100-469): as the sequence (P03956 100-469, species assumed) above

isolated rat hearts = assay: Myocardial ischemia/reperfusion injury in isolated rat hearts (Langendorff), infarct size; format: ex vivo; settings: 5 μM final concentration; isolated rat hearts, 30 min global ischemia, 120 min reperfusion
Method: Male Wistar rats were anesthetized with diethyl ether, heparin (500 U/kg i.v.) was administered and hearts were isolated. The hearts were assigned to three groups: (i) DMSO control and (ii) Compound 1 (1 μM) and (iii) Compound 1 (10 μM) treated. Stock solution of inhibitors was prepared in DMSO. The final DMSO concentration in all assays was 0.1%. Hearts were perfused in Langendorff mode with constant pressure (100 H2O cm) for 20 min at 37° C. then exposed to global ischemia for 30 min followed by 120 min of reperfusion. The DMSO and inhibitors were dissolved in Krebs-Henseleit buffer and administered only before onset of ischemia for 20 min (pretreatment) and during the first 30 min of reperfusion (FIG. 6). At the end of reperfusion, infarct size (IS) was defined by triphenyltetrazolium chloride staining (Csonka et al., 2010).
In separate experiments hearts were perfused to test cardioprotective effect of ALBH-know compound at 5 μM final concentration. The same protocol was used as mentioned above.

[10] = % ± SD, read-out: % inhibition MMP-2 (72 kDa)

IC50 (MMP2) | IC50 (MMP9) | IC50 (MMP1 [4]) | IC50 (MMP13 [6]) | inhibition at 100 µM (MMP-2; [10]) | % inhibition MMP-2 (72 kDa) (MMP-2; 1 μM, % ± SD) | Structure (SMILES) | CC50 at 48 h [1] | CC50 at 48 h [5] | further results
> 500 µM | > 500 µM | > 500 µM | 1.5 µM | – | – | O=C(O)c1csc(CN(Cc2ccc(OCc3cccnc3)cc2)Cc2cccnc2)n1 [Compound 10, 2-[({[4-(Pyridin-3-ylmethoxy)phenyl]methyl}(pyridin-3-ylmethyl)amino)methyl]-1,3-thiazole-4-carboxylic acid] | 20 µM | 20 µM | Cytoprotective effect, % cell survival as compared to vehicle DMSO ([2]; normoxia, EC5 concentration 0.3 microM): 112 ± 3 %; Cytoprotective effect, % cell survival as compared to vehicle DMSO ([2]; normoxia, EC10 concentration 1.0 microM): 112 ± 1 %; Cytoprotective effect, % cell survival as compared to vehicle DMSO ([2]; normoxia, EC20 concentration 3.0 microM): 115 ± 3 %; Cytoprotective effect, % cell survival as compared to vehicle DMSO ([2]; normoxia, EC50 concentration 9.0 microM): 108 ± 1%; Cytoprotective effect, % cell survival as compared to vehicle DMSO ([2]; simulated ischemia, EC5 concentration 0.3 microM): 117 ± 2 %; Cytoprotective effect, % cell survival as compared to vehicle DMSO ([2]; simulated ischemia, EC10 concentration 1.0 microM): 119 ± 2 %; Cytoprotective effect, % cell survival as compared to vehicle DMSO ([2]; simulated ischemia, EC20 concentration 3.0 microM): 123 ± 6 %; Cytoprotective effect, % cell survival as compared to vehicle DMSO ([2]; simulated ischemia, EC50 concentration 9.0 microM): 136 ± 2 %; % inhibition MMP-13 (50 kDa) (MMP13 [3]): No inhibition; inhibition at 100 µM (MMP13 [3]): 53.6 ± 18.9%
> 500 µM | > 500 µM | > 500 µM | 8.5 µM | 4.78 ± 7.18% | – | O=C(O)c1csc(CN(Cc2ccc(OCc3ccncc3)cc2)Cc2cccnc2)n1 [Compound 12, 2-{[(Pyridin-3-ylmethyl)({[4-(pyridin-4-ylmethoxy)phenyl]methyl})amino]methyl}-1,3-thiazole-4-carboxylic acid] | 37 µM | 90 µM | inhibition at 1 µM (MMP-2; 1 μM, % ± SD, read-out: % inhibition MMP-2 (72 kDa)): 5.59 ± 11.8%
15 µM | 100 µM | 33 µM | 3.3 µM | – | – | O=C(O)c1c[nH]c(CN(Cc2ccc(F)cc2)Cc2ccc(OCc3ccccc3)cc2)n1 [Compound 30 HCl, 2-[({[4-(Benzyloxy)phenyl]methyl}[(4-fluorophenyl)methyl]amino)methyl]-1H-imidazole-4-carboxylic acid] | – | – | CC50 [7]: 5.6 µM; CC50 [8]: 15 µM
6.6 µM | 13 µM | 3.9 µM | 1.76 µM | 100% | No inhibition | O=C(O)c1c[nH]c(CN(Cc2ccc(F)cc2)Cc2ccc(OCc3ccccc3)cc2)n1 [Compound 30, 2-[({[4-(Benzyloxy)phenyl]methyl}[(4-fluorophenyl)methyl]amino)methyl]-1H-imidazole-4-carboxylic acid] | 6 µM | 30 µM | IC50 (MMP-2; zymography, Table 8, read-out: IC50 on MMP-2): 0.081 µM; % inhibition MMP-1 (52 kDa) (MMP1 [9]; 1 μM): No inhibition; % inhibition MMP-1 (55 kDa) (MMP1 [9]; 1 μM): No inhibition; inhibition at 100 µM (MMP1 [9]; read-out: % inhibition MMP-1 (52 kDa)): 63.4 ± 18.3%; inhibition at 100 µM (MMP1 [9]; read-out: % inhibition MMP-1 (55 kDa)): 61.1 ± 6.78%
90 µM | > 500 µM | 240 µM | 8 µM | 100% | No nhibiton | O=C(O)c1csc(CN(Cc2ccc(OCc3ccccc3)cc2)Cc2cccnc2)n1 [Compound 14, 2-[({[4-(Benzyloxy)phenyl]methyl}(pyridin-3-ylmethyl)amino)methyl]-1,3-thiazole-4-carboxylic acid] | 19 µM | 42 µM | –
– | 15 µM | 3.6 µM | 1.62 µM | 100% | No inhibition | O=C(O)c1csc(CN(Cc2ccc(F)cc2)Cc2ccc(OCc3ccccc3)cc2)n1 [ALBH-known, 2-[({[4-(benzyloxy)phenyl]methyl}[(4-fluorophenyl)methyl]amino)methyl]-1,3-thiazole-4-carboxylic acid, reference compound] | 3.5 µM | 33 µM | reduction of myocardial IS as compared to vehicle (isolated rat hearts): 72.01±4.96%
35 µM | 8 µM | 16 µM | 0.28 µM | – | – | O=C(O)c1c[nH]c(CN(Cc2ccc(F)cc2)Cc2ccc(OC(c3ccccc3)c3ccccc3)cc2)n1 [Compound 22, 2-[({[4-(Diphenylmethoxy)phenyl]methyl}[(4-fluorophenyl)methyl]amino)methyl]-1H-imidazole-4-carboxylic acid] | 0.7 µM | 2 µM | % inhibition MMP-13 (50 kDa) (MMP13 [3]): No inhibition; inhibition at 100 µM (MMP13 [3]): 71.7 ± 4.49%
